From patent US4782139A, “Selective chemical removal of a protein amino-terminal residue” (Eli Lilly and Company, priority 1986, dated 1988)
Residues, ends and D or L forms follow the SMILES beside them. No end group written: not given here.

Key:
[1] = Protein stability under organic cleavage conditions, reverse phase HPLC; conditions: 40° C.; for Protein Stability, relative percent remaining: against an untreated external control
Experimental: Analysis of the products obtained via the foregoing cleavage methods upon a representative sampling of peptides and proteins was assessed by high performance anion exchange and reverse phase chromatography. Anion exchange chromatography was conducted on a Mono Q column in a 0.05M Tris, pH 8.0 buffer containing 30% acetonitrile. Elution was provided using a linear gradient of sodium chloride. Reverse phase analysis was performed on a Zorbax C8, 150Å pore size column using an acetonitrile gradient in 0.1M ammonium phosphate at 45° C., pH 7.0.

[2] = Organic cleavage conditions: diketopiperazine formation and disappearance of starting peptide, reverse phase chromatography; assay type: physicochemical
Excerpt: […] A molecular sieves for one week. […] The rate of cleavage was monitored by appearance of methionyl-proline diketopiperazine formation and disappearance of starting peptide as measured in reverse phase chromatographic analysis. Chromatography was achieved using a 0.46×25 cm column of Ultrosphere C18 in 0.1% trifluoroacetic acid (TFA), using an acetonitrile gradient to effect elution. The reaction was stopped at each analysis time point by ten-fold dilution with 0.1% trifluoroacetic acid. The diketopiperazine peak was collected and its identity confirmed by amino acid and mass spectral analysis.

[3] = Protein stability under organic cleavage conditions, anion exchange HPLC; assay type: physicochemical; conditions: 40° C.
Experimental: Anion exchange chromatography was conducted on a Mono Q column in a 0.05M Tris, pH 8.0 buffer containing 30% acetonitrile. Elution was provided using a linear gradient of sodium chloride. Reverse phase analysis was performed on a Zorbax C8, 150Å pore size column using an acetonitrile gradient in 0.1M ammonium phosphate at 45° C., pH 7.0.

Molecule: APLEPEYPGDNATPEQMAQYAAELRRYINMLTRPRY-NH2 [bPP, bovine pancreatic polypeptide, reference compound]
- Protein Stability, relative percent remaining ([1]; 1 M HOAc/DMF, 2 h): 42%
- Protein Stability, relative percent remaining ([1]; 1 M HOAc/DMF, 24 h): 40%
- Protein Stability, relative percent remaining ([1]; 1 M HOAc/DMF, 48 h): 32%
- Protein Stability, relative percent remaining ([1]; 1 M HOAc/DMSO, 2 h): 52%
- Protein Stability, relative percent remaining ([1]; 1 M HOAc/DMSO, 24 h): 90%
- Protein Stability, relative percent remaining ([1]; 1 M HOAc/DMSO, 48 h): 86%

Molecule: insulin Achain Ssulfonate [A(SO3^- )4, reference compound]
- Protein Stability, relative percent remaining ([1]; 1 M HOAc/DMF, 2 h): 100%
- Protein Stability, relative percent remaining ([1]; 1 M HOAc/DMF, 24 h): 58%
- Protein Stability, relative percent remaining ([1]; 1 M HOAc/DMSO, 2 h): 100%
- Protein Stability, relative percent remaining ([1]; 1 M HOAc/DMSO, 24 h): 100%
- Protein Stability, relative percent remaining ([1]; 1 M HOAc/DMSO, 48 h): 96%

Molecule: Proinsulin
- Protein Stability, relative percent remaining ([1]; 1 M HOAc/DMF, 2 h): 86%
- Protein Stability, relative percent remaining ([1]; 1 M HOAc/DMF, 24 h): 43%
- Protein Stability, relative percent remaining ([1]; 1 M HOAc/DMF, 48 h): 30%
- Protein Stability, relative percent remaining ([1]; 1 M HOAc/DMSO, 2 h): 97%
- Protein Stability, relative percent remaining ([1]; 1 M HOAc/DMSO, 24 h): 70%
- Protein Stability, relative percent remaining ([1]; 1 M HOAc/DMSO, 48 h): 86%

Molecule: CSCC[C@H](N)C(=O)N1CCC[C@H]1C(=O)NCC(=O)NCC(N)=O [Met--Pro--Gly--Gly--NH2] (H-MPGG-NH2)
- quantity of starting material remaining ([2]; 1 M HOAc/CH2 Cl2, 25° C., 0 h): 100%
- quantity of starting material remaining ([2]; 1 M HOAc/CH2 Cl2, 25° C., 2 h): 104%
- quantity of starting material remaining ([2]; 1 M HOAc/CH2 Cl2, 25° C., 4 h): 96%
- quantity of starting material remaining ([2]; 1 M HOAc/CH2 Cl2, 25° C., 6 h): 99%
- quantity of starting material remaining ([2]; 1 M HOAc/CH2 Cl2, 25° C., 24 h): 80%
- quantity of starting material remaining ([2]; 1 M HOAc/CH3 CN, 25° C., 0 h): 100%
- quantity of starting material remaining ([2]; 1 M HOAc/CH3 CN, 25° C., 2 h): 114%
- quantity of starting material remaining ([2]; 1 M HOAc/CH3 CN, 25° C., 4 h): 105%
- quantity of starting material remaining ([2]; 1 M HOAc/CH3 CN, 25° C., 6 h): 99%
- quantity of starting material remaining ([2]; 1 M HOAc/CH3 CN, 25° C., 24 h): 66%
- quantity of starting material remaining ([2]; 1 M HOAc/DMF, 25° C., 0 h): 100%
- quantity of starting material remaining ([2]; 1 M HOAc/DMF, 25° C., 2 h): 88%
- quantity of starting material remaining ([2]; 1 M HOAc/DMF, 25° C., 4 h): 71%
- quantity of starting material remaining ([2]; 1 M HOAc/DMF, 25° C., 6 h): 57%
- quantity of starting material remaining ([2]; 1 M HOAc/DMF, 25° C., 24 h): 11%
- quantity of starting material remaining ([2]; 1 M HOAc/DMSO, determined at 40° C., 0 h): 100%
- quantity of starting material remaining ([2]; 1 M HOAc/DMSO, determined at 40° C., 2 h): 73%
- quantity of starting material remaining ([2]; 1 M HOAc/DMSO, determined at 40° C., 4 h): 56%
- quantity of starting material remaining ([2]; 1 M HOAc/DMSO, determined at 40° C., 24 h): 6%
- quantity of starting material remaining ([2]; 1 M HOAc/MeOH, 25° C., 0 h): 100%
- quantity of starting material remaining ([2]; 1 M HOAc/MeOH, 25° C., 2 h): 101%
- quantity of starting material remaining ([2]; 1 M HOAc/MeOH, 25° C., 4 h): 99%
- quantity of starting material remaining ([2]; 1 M HOAc/MeOH, 25° C., 6 h): 99%
- quantity of starting material remaining ([2]; 1 M HOAc/MeOH, 25° C., 24 h): 97%
- quantity of starting material remaining ([2]; 1 M HOAc/nPrOH, 25° C., 2 h): 100%
- quantity of starting material remaining ([2]; 1 M HOAc/nPrOH, 25° C., 4 h): 97%
- quantity of starting material remaining ([2]; 1 M HOAc/nPrOH, 25° C., 6 h): 94%
- quantity of starting material remaining ([2]; 1 M HOAc/nPrOH, 25° C., 24 h): 72%

Molecule: insulin Bchain Ssulfonate [B(SO3^- )2, reference compound]
- Protein Stability, relative percent remaining ([1]; 1 M HOAc/DMF, 2 h): 97%
- Protein Stability, relative percent remaining ([1]; 1 M HOAc/DMF, 24 h): 62%
- Protein Stability, relative percent remaining ([1]; 1 M HOAc/DMSO, 2 h): 94%
- Protein Stability, relative percent remaining ([1]; 1 M HOAc/DMSO, 24 h): 106%

Molecule: methionyl human growth hormone
- Stability, determined by anion exchange HPLC ([3]; 0.33 M HOAc/DMF, 2 h): 78
- Stability, determined by anion exchange HPLC ([3]; 0.33 M HOAc/DMF, 4 h): 68
- Stability, determined by anion exchange HPLC ([3]; 0.33 M HOAc/DMF, 24 h): 34
- Stability, determined by anion exchange HPLC ([3]; 0.33 M HOAc/DMSO, 2 h): 100
- Stability, determined by anion exchange HPLC ([3]; 0.33 M HOAc/DMSO, 4 h): 99
- Stability, determined by anion exchange HPLC ([3]; 0.33 M HOAc/DMSO, 24 h): 86
- Stability, determined by anion exchange HPLC ([3]; 0.33 M HOAc/NMP, 2 h): 90
- Stability, determined by anion exchange HPLC ([3]; 0.33 M HOAc/NMP, 4 h): 89
- Stability, determined by anion exchange HPLC ([3]; 0.33 M HOAc/NMP, 24 h): 75
- Stability, determined by reverse phase HPLC ([1]; 0.33 M HOAc/DMF, 2 h): 78
- Stability, determined by reverse phase HPLC ([1]; 0.33 M HOAc/DMF, 4 h): 65
- Stability, determined by reverse phase HPLC ([1]; 0.33 M HOAc/DMF, 24 h): 45
- Stability, determined by reverse phase HPLC ([1]; 0.33 M HOAc/DMSO, 2 h): 91
- Stability, determined by reverse phase HPLC ([1]; 0.33 M HOAc/DMSO, 4 h): 77
- Stability, determined by reverse phase HPLC ([1]; 0.33 M HOAc/DMSO, 24 h): 75
- Stability, determined by reverse phase HPLC ([1]; 0.33 M HOAc/NMP, 2 h): 85
- Stability, determined by reverse phase HPLC ([1]; 0.33 M HOAc/NMP, 4 h): 70
- Stability, determined by reverse phase HPLC ([1]; 0.33 M HOAc/NMP, 24 h): 77
